Laboratory results taken from ChEMBL document CHEMBL4138084, “Structure-activity relationship study of the tumour-targeting peptide A20FMDV2 via modification of Lys16, Leu13, and N- and/or C-terminal functionality” (Eur J Med Chem, 2017).
Activity calls are given as the source filed them. The calls are words filed in the database; no cut-off is given here.

Key:
Integrin alpha-V/beta-6 [1] = molecular target: T1, Integrin alpha-V/beta-6 (Homo sapiens, UniProt P06756+P18564); assay: Binding affinity to alphav/beta6 integrin in human A375Pbeta6 cells assessed as drug internalization at 100 nM after 15 mins by flow cytometric analysis relative to biotinylated A20FMDV2; format: ADME, cell-based; settings: 0.25 h, 0.1 µM
Target sequence in this assay (P06756 31-889 limits assumed): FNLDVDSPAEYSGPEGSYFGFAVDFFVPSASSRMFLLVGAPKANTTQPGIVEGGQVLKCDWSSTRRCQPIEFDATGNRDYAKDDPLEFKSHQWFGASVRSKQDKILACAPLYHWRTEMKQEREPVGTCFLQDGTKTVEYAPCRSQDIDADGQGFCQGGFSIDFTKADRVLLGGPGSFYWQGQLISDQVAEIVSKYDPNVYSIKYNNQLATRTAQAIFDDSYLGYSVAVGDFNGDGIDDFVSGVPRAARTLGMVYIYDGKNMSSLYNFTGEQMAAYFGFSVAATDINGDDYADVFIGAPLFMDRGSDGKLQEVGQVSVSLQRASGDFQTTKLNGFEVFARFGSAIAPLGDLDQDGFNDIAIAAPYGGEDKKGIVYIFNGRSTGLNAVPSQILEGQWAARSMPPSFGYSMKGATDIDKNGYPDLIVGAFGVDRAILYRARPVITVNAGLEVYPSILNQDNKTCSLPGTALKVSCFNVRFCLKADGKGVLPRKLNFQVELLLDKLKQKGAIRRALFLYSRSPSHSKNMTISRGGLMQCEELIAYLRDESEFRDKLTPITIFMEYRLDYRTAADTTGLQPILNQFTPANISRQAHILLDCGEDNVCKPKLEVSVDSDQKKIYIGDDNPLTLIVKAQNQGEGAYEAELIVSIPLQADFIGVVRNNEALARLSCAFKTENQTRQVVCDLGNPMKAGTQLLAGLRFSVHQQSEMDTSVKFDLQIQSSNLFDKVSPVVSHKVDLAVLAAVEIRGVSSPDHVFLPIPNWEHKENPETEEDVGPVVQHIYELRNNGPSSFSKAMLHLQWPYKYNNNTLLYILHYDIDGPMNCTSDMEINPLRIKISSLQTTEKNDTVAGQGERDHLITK
Target sequence in this assay (P06756 891-1048 limits assumed): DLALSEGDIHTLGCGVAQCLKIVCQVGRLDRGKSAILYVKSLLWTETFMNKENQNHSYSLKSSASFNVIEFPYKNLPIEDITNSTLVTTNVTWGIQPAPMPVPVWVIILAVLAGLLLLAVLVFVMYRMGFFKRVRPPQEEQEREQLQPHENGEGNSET
Target sequence in this assay (P18564 22-788 limits assumed): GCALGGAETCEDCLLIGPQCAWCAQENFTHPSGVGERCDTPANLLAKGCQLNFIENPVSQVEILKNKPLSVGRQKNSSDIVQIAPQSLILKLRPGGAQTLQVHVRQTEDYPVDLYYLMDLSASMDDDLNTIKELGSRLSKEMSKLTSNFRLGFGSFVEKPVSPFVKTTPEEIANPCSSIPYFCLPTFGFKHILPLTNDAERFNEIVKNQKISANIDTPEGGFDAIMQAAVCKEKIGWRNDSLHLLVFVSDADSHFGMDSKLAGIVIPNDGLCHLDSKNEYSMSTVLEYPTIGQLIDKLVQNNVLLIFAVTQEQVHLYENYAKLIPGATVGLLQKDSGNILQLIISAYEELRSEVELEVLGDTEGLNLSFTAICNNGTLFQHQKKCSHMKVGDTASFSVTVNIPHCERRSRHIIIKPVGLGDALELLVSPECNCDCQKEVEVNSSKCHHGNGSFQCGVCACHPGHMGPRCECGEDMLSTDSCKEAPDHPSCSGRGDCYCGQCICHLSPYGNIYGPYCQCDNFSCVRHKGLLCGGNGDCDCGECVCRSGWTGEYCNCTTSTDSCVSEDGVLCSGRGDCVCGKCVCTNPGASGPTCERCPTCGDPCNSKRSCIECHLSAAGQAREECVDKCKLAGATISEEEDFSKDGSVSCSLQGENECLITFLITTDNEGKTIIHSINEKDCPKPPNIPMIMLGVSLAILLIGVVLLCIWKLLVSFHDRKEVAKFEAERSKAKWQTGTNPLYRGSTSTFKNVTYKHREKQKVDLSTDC

Integrin alpha-V/beta-6 [2] = molecular target: T1, Integrin alpha-V/beta-6; assay: Binding affinity to alphav/beta6 integrin in human A375Pbeta6 cells at 100 nM after 15 mins by flow cytometric analysis relative to biotinylated A20FMDV2; format: cell-based
[3] = Drug uptake in human A375PPuro cells at 1000 nM after 15 mins by flow cytometric analysis; format: ADME, cell-based; settings: 0.25 h, 1 µM
[4] = molecular target: Integrin alpha-V/beta-5 (Homo sapiens) (UniProt P06756+P18084); assay: Binding affinity alphav/beta5 integrin in human A375PPuro cells at 1000 nM after 15 mins by flow cytometric analysis; format: cell-based
[5] = test system: Integrin alpha-V/beta-1 (Homo sapiens); assay: Binding affinity alphav/beta1 integrin in human A375PPuro cells at 1000 nM after 15 mins by flow cytometric analysis
[6] = molecular target: Integrin alpha-V/beta-8 (Homo sapiens) (UniProt P06756+P26012); assay: Binding affinity alphav/beta8 integrin in human A375PPuro cells at 1000 nM after 15 mins by flow cytometric analysis; format: cell-based

SMILES | fold change (FC) (Integrin alpha-V/beta-6 [1]) | fold change (FC) (Integrin alpha-V/beta-6 [2]) | Drug uptake [3] | Activity [4] | Activity [5] | Activity [6]
C=CC[C@H](NC(=O)[C@@H](NC(=O)[C@H](CCC(N)=O)NC(=O)[C@H](CC(C)C)NC(=O)[C@H](CC(=O)O)NC(=O)CNC(=O)[C@H](CCCNC(=N)N)NC(=O)[C@H](CC(C)C)NC(=O)[C@H](CC(N)=O)NC(=O)[C@@H]1CCCN1C(=O)[C@@H](NC(=O)[C@H](CCCCNC(=O)CCCC[C@@H]1SC[C@@H]2NC(=O)N[C@@H]21)NC(=O)[C@@H](N)CC(N)=O)C(C)C)C(C)C)C(=O)N[C@@H](C)C(=O)N[C@@H](CCC(N)=O)C(=O)N[C@@H](CCCCN)C(=O)N[C@H](C(=O)N[C@@H](C)C(=O)N[C@@H](CCCNC(=N)N)C(=O)N[C@H](C(=O)O)[C@@H](C)O)C(C)C | 0.82 | 0.58 | Not Active |  |  | 
CC(C)C[C@H](NC(=O)[C@H](CC(=O)O)NC(=O)CNC(=O)[C@H](CCCNC(=N)N)NC(=O)[C@H](CC(C)C)NC(=O)[C@H](CC(N)=O)NC(=O)[C@@H]1CCCN1C(=O)[C@@H](NC(=O)[C@H](CCCCNC(=O)CCCC[C@@H]1SC[C@@H]2NC(=O)N[C@@H]21)NC(=O)[C@@H](N)CC(N)=O)C(C)C)C(=O)N[C@@H](CCC(N)=O)C(=O)N[C@H](C(=O)N[C@@H](CC1CCCCC1)C(=O)N[C@@H](C)C(=O)N[C@@H](CCC(N)=O)C(=O)N[C@@H](CCCCN)C(=O)N[C@H](C(=O)N[C@@H](C)C(=O)N[C@@H](CCCNC(=N)N)C(=O)N[C@H](C(=O)O)[C@@H](C)O)C(C)C)C(C)C | 1.01 | 0.62 | Not Active |  |  | 
CC(C)C[C@H](NC(=O)[C@H](CC(=O)O)NC(=O)CNC(=O)[C@H](CCCNC(=N)N)NC(=O)[C@H](CC(C)C)NC(=O)[C@H](CC(N)=O)NC(=O)[C@@H]1CCCN1C(=O)[C@@H](NC(=O)[C@H](CCCCNC(=O)CCCC[C@@H]1SC[C@@H]2NC(=O)N[C@@H]21)NC(=O)[C@@H](N)CC(N)=O)C(C)C)C(=O)N[C@@H](CCC(N)=O)C(=O)N[C@H](C(=O)N[C@@H](CC(C)C)C(=O)N[C@@H](C)C(=O)N[C@@H](CCC(N)=O)C(=O)N[C@@H](CN)C(=O)N[C@H](C(=O)N[C@@H](C)C(=O)N[C@@H](CCCNC(=N)N)C(=O)N[C@H](C(=O)O)[C@@H](C)O)C(C)C)C(C)C | 0.96 | 0.79 | Not Active |  |  | 
CC(C)C[C@H](NC(=O)[C@H](CC(=O)O)NC(=O)CNC(=O)[C@H](CCCNC(=N)N)NC(=O)[C@H](CC(C)C)NC(=O)[C@H](CC(N)=O)NC(=O)[C@@H]1CCCN1C(=O)[C@@H](NC(=O)[C@H](CCCCNC(=O)CCCC[C@@H]1SC[C@@H]2NC(=O)N[C@@H]21)NC(=O)[C@@H](N)CC(N)=O)C(C)C)C(=O)N[C@@H](CCC(N)=O)C(=O)N[C@H](C(=O)NC(C)(C)C(=O)N[C@@H](C)C(=O)N[C@@H](CCC(N)=O)C(=O)N[C@@H](CCCCN)C(=O)N[C@H](C(=O)N[C@@H](C)C(=O)N[C@@H](CCCNC(=N)N)C(=O)N[C@H](C(=O)O)[C@@H](C)O)C(C)C)C(C)C | 1.11 | 1.07 | Not Active |  |  | 

Now from value to molecule:

fold change (FC) (Integrin alpha-V/beta-6 [1]) | fold change (FC) (Integrin alpha-V/beta-6 [2]) | Drug uptake [3] | Activity [4] | Activity [5] | Activity [6] | SMILES
0.86 | 1 | Not Active |  |  |  | CC(C)C[C@H](NC(=O)[C@H](CC(=O)O)NC(=O)CNC(=O)[C@H](CCCNC(=N)N)NC(=O)[C@H](CC(C)C)NC(=O)[C@H](CC(N)=O)NC(=O)[C@@H]1CCCN1C(=O)[C@@H](NC(=O)[C@H](CCCCNC(=O)CCCC[C@@H]1SC[C@@H]2NC(=O)N[C@@H]21)NC(=O)[C@@H](N)CC(N)=O)C(C)C)C(=O)N[C@@H](CCC(N)=O)C(=O)N[C@H](C(=O)N[C@@H](CC(C)C)C(=O)N[C@@H](C)C(=O)N[C@@H](CCC(N)=O)C(=O)N[C@@H](CCN)C(=O)N[C@H](C(=O)N[C@@H](C)C(=O)N[C@@H](CCCNC(=N)N)C(=O)N[C@H](C(=O)O)[C@@H](C)O)C(C)C)C(C)C
 |  | Not Active | inactive | inactive | inactive | CC(C)C[C@H](NC(=O)[C@H](CC(=O)O)NC(=O)CNC(=O)[C@H](CCCNC(=N)N)NC(=O)[C@H](CC(C)C)NC(=O)[C@H](CC(N)=O)NC(=O)[C@@H]1CCCN1C(=O)[C@@H](NC(=O)[C@H](CCCCNC(=O)CCCC[C@@H]1SC[C@@H]2NC(=O)N[C@@H]21)NC(=O)[C@H](CC(N)=O)NC(=O)CN1CCN(CC(=O)O)CCN(CC(=O)O)CCN(CC(=O)O)CC1)C(C)C)C(=O)N[C@@H](CCC(N)=O)C(=O)N[C@H](C(=O)N[C@@H](CC(C)C)C(=O)N[C@@H](C)C(=O)N[C@@H](CCC(N)=O)C(=O)N[C@@H](CCCCN)C(=O)N[C@H](C(=O)N[C@@H](C)C(=O)N[C@@H](CCCNC(=N)N)C(=O)N[C@H](C(=O)O)[C@@H](C)O)C(C)C)C(C)C
